Each structure is given as a SMILES string. ≈ marks a conversion by molar mass, not a printed value. Some results are limits rather than exact numbers.

The target of data set [1] is T1, Autotaxin (Rattus norvegicus, UniProt Q64610). Nature of the data set: Inhibition of recombinant rat ATX using LPC 18:1 as substrate after 2 hrs by rapidfire/MS-based analysis.
Data set [2] addresses Voltage-gated inwardly rectifying potassium channel KCNH2 (Homo sapiens, UniProt Q12809).
Description: Inhibition of human ERG expressed in HEK293 cells by patch clamp assay
Data set [3] can be described thus: physchem. Particulars: pH 2.2 buffer solution.
Description: Aqueous solubility of the compound in pH 2.2 buffer solution after 24 hrs by LC-UV analysis
The nature of data set [4]: physchem. Particulars: pH 4.5 buffer solution.
Description: Aqueous solubility of the compound in pH 4.5 buffer solution after 24 hrs by LC-UV analysis
Data set [5] can be described thus: physchem. Particulars: pH 6.8 buffer solution.
Description: Aqueous solubility of the compound in pH 6.8 buffer solution after 24 hrs by LC-UV analysis
The nature of data set [6]: in vitro. Particulars: human, liver microsomes.
Description: Clearance in human liver microsomes at 1 uM in presence of NADPH by LC-MS/MS analysis relative to hepatic blood flow
A short description of data set [7]: in vitro. Particulars: rat, liver microsomes. A general note: Liver microsomes are a subcellular fraction often used to study metabolism.
Description: Clearance in rat liver microsomes at 1 uM in presence of NADPH by LC-MS/MS analysis relative to hepatic blood flow
The nature of data set [8]: in vitro. Particulars: human, Caco-2.
Description: Apparent permeability across apical to basolateral side in human Caco2 cells at 10 uM measured up to 90 mins
Data set [9] concerns the target T1, Autotaxin. Description: Inhibition of ATX in rat whole blood using LPA 17:0 as substrate after 1 hr by LC-MS/MS analysis.

Voltage-gated inwardly rectifying potassium channel KCNH2, sequence (Q12809 whole entry): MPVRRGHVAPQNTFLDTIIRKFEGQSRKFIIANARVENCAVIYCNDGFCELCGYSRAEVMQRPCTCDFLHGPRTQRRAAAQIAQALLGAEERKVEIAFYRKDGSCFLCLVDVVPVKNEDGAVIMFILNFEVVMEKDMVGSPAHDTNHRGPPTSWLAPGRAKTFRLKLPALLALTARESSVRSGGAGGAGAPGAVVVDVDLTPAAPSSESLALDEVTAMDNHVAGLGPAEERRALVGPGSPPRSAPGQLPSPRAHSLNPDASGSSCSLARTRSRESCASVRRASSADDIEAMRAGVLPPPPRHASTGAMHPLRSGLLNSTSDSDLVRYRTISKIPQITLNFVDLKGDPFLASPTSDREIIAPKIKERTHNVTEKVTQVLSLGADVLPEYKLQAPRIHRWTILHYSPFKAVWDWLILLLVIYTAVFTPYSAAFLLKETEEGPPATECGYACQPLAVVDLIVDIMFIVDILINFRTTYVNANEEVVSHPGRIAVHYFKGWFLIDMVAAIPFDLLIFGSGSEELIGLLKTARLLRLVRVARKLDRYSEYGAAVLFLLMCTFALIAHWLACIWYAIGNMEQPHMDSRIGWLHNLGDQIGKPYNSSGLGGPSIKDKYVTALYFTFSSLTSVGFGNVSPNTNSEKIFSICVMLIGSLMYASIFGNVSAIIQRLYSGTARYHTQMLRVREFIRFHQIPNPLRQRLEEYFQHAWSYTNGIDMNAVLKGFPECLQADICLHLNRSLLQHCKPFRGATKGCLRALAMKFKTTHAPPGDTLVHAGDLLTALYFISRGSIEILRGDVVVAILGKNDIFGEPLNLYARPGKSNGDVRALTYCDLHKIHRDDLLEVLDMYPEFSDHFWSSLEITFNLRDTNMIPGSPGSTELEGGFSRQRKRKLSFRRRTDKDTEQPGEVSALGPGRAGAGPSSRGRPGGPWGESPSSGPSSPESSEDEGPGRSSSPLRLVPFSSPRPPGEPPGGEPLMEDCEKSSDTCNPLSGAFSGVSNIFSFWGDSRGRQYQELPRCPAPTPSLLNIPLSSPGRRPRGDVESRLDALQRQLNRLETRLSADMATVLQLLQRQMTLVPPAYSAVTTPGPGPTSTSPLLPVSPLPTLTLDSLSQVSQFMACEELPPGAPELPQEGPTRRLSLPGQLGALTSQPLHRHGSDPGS

On to `Cc1cc(COC(=O)N2C[C@@H]3[C@@H](CNC(=O)c4ccc5[nH]c(=O)oc5c4)[C@@H]3C2)no1`, for which the results for the IC50 in data set [1] and in [2] were 1670 nM and over 10000 nM, respectively. The results for the solubility at 24 h in data set [3], in data set [4] and in data set [5] were over 86 µg/mL, over 93 µg/mL and 63 µg/mL (≈ 153 µM), respectively. In addition, the hepatic extraction ratio at 1 µM in data set [6] was under 0.23; in data set [7], under 0.22. Besides, the Papp A→B (in general, the apparent permeability from the apical to the basolateral side of a cell layer) at 1.5 h, 10 µM in [8] turned out to be 2 ×10⁻⁶ cm/s.

On to `O=C(NC[C@@H]1[C@H]2CN(C(=O)/C=C/c3cc(Cl)cc(Cl)c3)C[C@@H]12)c1ccc2[nH]c(=O)oc2c1`, for which the IC50 (as a rule, the midpoint of a concentration-inhibition curve) in data set [1] worked out at 1.7 nM; in [9], 1900 nM; in [2], 4200 nM. In addition, the solubility at 24 h in data set [3], in [4] and in [5] was under 1 µg/mL each time. Further, the hepatic extraction ratio at 1 µM in data set [6] is 0.25; in [7], over 0.22. The same compound showed a Papp A→B at 1.5 h, 10 µM in [8] of 38 ×10⁻⁶ cm/s.

Turning to `N#Cc1cc(COC(=O)N2C[C@@H]3[C@@H](CNC(=O)N4CCc5c(O)noc5C4)[C@@H]3C2)cc(C(=O)OC(F)(F)F)c1`, the IC50 in data set [1] is 10 nM; in data set [2], over 10000 nM. In addition, the solubility (as a rule, the concentration that dissolves in the medium under given conditions) at 24 h in [3] was under 1 µg/mL; in data set [4], under 1 µg/mL; in [5], over 113 µg/mL. For the same compound, the hepatic extraction ratio at 1 µM in [6] was under 0.23; in data set [7], under 0.22.

As for `N#Cc1cc(COC(=O)N2C[C@@H]3[C@@H](CNC(=O)NCCCc4cnn[nH]4)[C@@H]3C2)cc(C(=O)OC(F)(F)F)c1`, the IC50 in data set [1] was 5.5 nM; in data set [9] it was 65 nM.

For `O=C(NC[C@@H]1[C@H]2CN(C(=O)NCc3cc(Cl)cc(Cl)c3)C[C@@H]12)c1ccc2[nH]c(=O)oc2c1`, the results for the 50% inhibitory concentration (IC50) in data set [1], in data set [9] and in data set [2] were 13.9 nM, 77 nM and over 10000 nM, respectively. Also, the solubility at 24 h in data set [3], in [4] and in data set [5] was under 1 µg/mL throughout. Further, the hepatic extraction ratio at 1 µM in [6] was 0.36; in [7] it was 0.35. Moreover, the apparent permeability from apical to basolateral (Papp A→B) at 1.5 h, 10 µM in [8] amounted to 2 ×10⁻⁶ cm/s.

Turning to `O=C(CCN1CCN(C(=O)OCc2cc(Cl)cc(Cl)c2)CC1)c1ccc2[nH]c(=O)oc2c1`, the results for the concentration for half-maximal inhibition (IC50) in [9] and in data set [2] were 307 nM and 480 nM, respectively.

On to `O=C(NC[C@@H]1[C@H]2CN(C(=O)C3CC3c3cc(Cl)cc(Cl)c3)C[C@@H]12)c1ccc2[nH]c(=O)oc2c1` (some centres undefined), for which the half-maximal inhibitory concentration (IC50) came to 4.8 nM in [1], 2400 nM in data set [9] and 4700 nM in [2]. Also, the solubility at 24 h in data set [3], in data set [4] and in data set [5] was under 1 µg/mL each time. The hepatic extraction ratio at 1 µM in [7] was over 0.22. This compound yielded a Papp A→B at 1.5 h, 10 µM in data set [8] of 64 ×10⁻⁶ cm/s.

Turning to `CC(C)(C)OC(=O)N1CCCC(COC(=O)N2C[C@@H]3[C@@H](CNC(=O)c4ccc5[nH]c(=O)oc5c4)[C@@H]3C2)C1` (some centres undefined), the figures for the IC50 in [1] and in [9] were 49 nM and 6.9 nM, respectively.

Consider `N#Cc1cc(COC(=O)N2C[C@@H]3[C@@H](CNC(=O)c4ccc5[nH]c(=O)oc5c4)[C@@H]3C2)cc(OC(F)(F)F)c1`, for which the half-maximal inhibitory concentration (IC50) is 1.9 nM in [1], 94 nM in data set [9] and over 10000 nM in [2]. The solubility at 24 h in [3], in data set [4] and in data set [5] was under 1 µg/mL each time. Besides, the hepatic extraction ratio at 1 µM in [6] worked out at 0.48; in data set [7], 0.56. The apical-to-basolateral permeability (Papp A→B) at 1.5 h, 10 µM in data set [8] is 44 ×10⁻⁶ cm/s.

For `O=C(NC[C@@H]1[C@H]2CN(C(=O)OCc3cc(C(F)(F)F)cc(C(F)(F)F)c3)C[C@@H]12)c1ccc2[nH]c(=O)oc2c1`, the values for the IC50 in data set [1] and in data set [9] were 2.3 nM and 4.5 nM, respectively. The solubility at 24 h in data set [3], in data set [4] and in data set [5] was under 1 µg/mL in each case. For the same compound, the Papp A→B at 1.5 h, 10 µM in [8] is 108 ×10⁻⁶ cm/s.

For `O=C(NC[C@@H]1[C@H]2CN(C(=O)CCc3cc(Cl)cc(Cl)c3)C[C@@H]12)c1ccc2[nH]c(=O)oc2c1`, the half-inhibitory concentration (IC50) was determined as 2.3 nM in [1], 7 nM in data set [9] and 8100 nM in data set [2]. Further, the solubility at 24 h in data set [3], in [4] and in data set [5] was under 1 µg/mL throughout. For the same compound, the figures for the hepatic extraction ratio at 1 µM in data set [6] and in [7] were 0.94 and 0.88, respectively. In data set [8], the Papp A→B at 1.5 h, 10 µM stood at 18 ×10⁻⁶ cm/s.

For the compound `O=C(NC[C@@H]1[C@H]2CN(C(=O)OCc3cc(Cl)cc(Cl)c3)C[C@@H]12)c1ccc2[nH]c(=O)oc2c1`, the results for the IC50 in data set [1], in [9] and in data set [2] were 3.1 nM, 56 nM and over 10000 nM, respectively. In addition, the solubility at 24 h in data set [3], in data set [4] and in data set [5] was under 1 µg/mL each time. The hepatic extraction ratio at 1 µM amounted to 0.41 in data set [6] and 0.64 in data set [7]. For the same compound, in data set [8], the apparent permeability from apical to basolateral (Papp A→B) at 1.5 h, 10 µM was 137 ×10⁻⁶ cm/s.

For the compound `N#Cc1cc(COC(=O)N2C[C@@H]3[C@@H](CNC(=O)N4CCc5[nH]nnc5C4)[C@@H]3C2)cc(C(=O)OC(F)(F)F)c1`, the IC50 is 1.3 nM in [1], 33 nM in data set [9] and over 10000 nM in data set [2]. Also, the solubility at 24 h in [3] was determined as 32 µg/mL (≈ 60 µM); in data set [4], 26 µg/mL (≈ 48.7 µM); in data set [5], 5 µg/mL (≈ 9.37 µM). The hepatic extraction ratio at 1 µM in [6] came to 0.44; in [7], 0.43. The Papp A→B at 1.5 h, 10 µM in data set [8] came out at 7 ×10⁻⁶ cm/s.

On to `O=C(NC[C@@H]1[C@H]2CN(C(=O)N3CCc4c(Cl)cc(Cl)cc4C3)C[C@@H]12)c1ccc2[nH]c(=O)oc2c1`, for which the IC50 in [1] turned out to be 82.6 nM. In addition, the solubility at 24 h in data set [3], in data set [4] and in [5] was under 1 µg/mL in each case. Further, in [7], the hepatic extraction ratio at 1 µM stood at 0.53. In data set [8], this compound gave an apical-to-basolateral permeability (Papp A→B) at 1.5 h, 10 µM of 47 ×10⁻⁶ cm/s.

For `CC(OC(=O)N1C[C@@H]2[C@@H](CNC(=O)c3ccc4[nH]c(=O)oc4c3)[C@@H]2C1)c1cc(Cl)cc(Cl)c1` (some centres undefined), the IC50 in data set [1] is 66.9 nM; in [9] it was 208 nM. Besides, the solubility at 24 h in data set [3], in data set [4] and in [5] was under 1 µg/mL in each case. Also, in data set [8], the apical-to-basolateral permeability (Papp A→B) at 1.5 h, 10 µM stood at 118 ×10⁻⁶ cm/s.

Turning to `Cc1ccc(COC(=O)N2C[C@@H]3[C@@H](CNC(=O)c4ccc5[nH]c(=O)oc5c4)[C@@H]3C2)nc1`, the IC50 in [1] was 1530 nM; in [9] it was 1610 nM; in data set [2], over 10000 nM. Moreover, the solubility at 24 h in [3] is over 92 µg/mL; in [4], 66 µg/mL (≈ 156 µM); in data set [5] it was 56 µg/mL (≈ 133 µM). Further, the values for the hepatic extraction ratio at 1 µM in data set [6] and in data set [7] were 0.25 and under 0.22, respectively. In addition, the apical-to-basolateral permeability (Papp A→B) at 1.5 h, 10 µM in data set [8] was 1 ×10⁻⁶ cm/s.

`N#Cc1cc(COC(=O)N2C[C@@H]3[C@@H](CNC(=O)c4ccc5[nH]nnc5c4)[C@@H]3C2)cc(C(=O)OC(F)(F)F)c1`: the IC50 in [1] was 1.5 nM; in [9], 18 nM; in data set [2] it was over 10000 nM. In addition, the solubility at 24 h in data set [3], in data set [4] and in data set [5] was under 1 µg/mL throughout. Further, the hepatic extraction ratio at 1 µM in [6] amounted to 0.29; in data set [7] it was 0.28. This compound also returned a Papp A→B at 1.5 h, 10 µM in [8] of 8 ×10⁻⁶ cm/s.
